# Measured values reported in patent US20100137294A1, “COMPOUNDS, COMPOSITIONS AND METHODS FOR CONTROLLING INVERTEBRATE PESTS” (GENETIC TECHNOLOGIES LIMITED, priority 2006, published 2010).
# Test system: T. vitrinus L3 larvae
# Assay: Testing of compounds on T. vitrinus L3 larvae (96-well microplate larval kill assay)
# Assay type: cell-based, Trichostrongylus vitrinus
# Conditions: primary screening, 5 mM compound, 5% DMSO, overnight RT
# Procedure: The ability of the compounds to kill T. vitrinus L3 larvae was tested. The L3 stage is encased in a sheath, which protects the larva from external stresses such as desiccation and chemicals. This makes it more difficult to kill this part of the lifecycle with chemotherapeutic agents. The tests will determine which compounds can kill this lifestage, therefore defining which compounds can penetrate through the sheath and subsequently kill the larva.
# The L3 stage of T. vitrinus were collected and stored in water at 4° C. until needed. Each compound was suspended in 100% dimethyl sulphoxide (DMSO) to a final concentration of 100 mM.
# Around fifty L3 larvae were added, in 95 μl of water, to the wells of a 96-well microtitre plate. The plate was incubated overnight RT. Plates were viewed under a binocular microscope and the proportion of dead L3 larvae in the controls and each treatment were scored. Concentrations above 5 mM were not tested as DMSO alone kills larvae when the proportion exceeds 5% of the total volume. Many of the compounds are predicted to have limited solubility in aqueous solution, thus requiring the presence of organic solvent. The appropriate controls included wells with and without various concentrations of DMSO alone.
# Three compounds ((4), (10) and (20)) could also kill 100% of larvae exposed at 0.5 mM.
row,SMILES,% of T. vitrinus L3 larvae killed
1,"O=C1NC(=O)C2C1[C@@H]1CC[C@H]2O1 (stereo partly drawn) [Compound 20, exo-7-Oxabicyclo(2.2.1)heptane-2,3-dicarboximide]",100%
2,"CCCCCCCCN1C(=O)C2C3CCC(O3)C2C1=O (centres unmarked) [Compound 6, N-octyl-7-Oxabicyclo(2.2.1)heptane-2,3-dicarboximide]",100%
3,"O=C(O)C1C(C(=O)NCCN2CCOCC2)[C@H]2CC[C@@H]1O2 (some centres unmarked) [Compound 12, 3-(Ethylmorpholinecarbamoyl)-7-Oxabicyclo(2.2.1)heptane-2-carboxylic acid]",100%
4,"CCCCN1C(=O)C2C3CCC(O3)C2C1=O (centres unmarked) [Compound 5, N-butyl-7-Oxabicyclo(2.2.1)heptane-2,3-dicarboximide]",100%
5,O=C(O)C(Cc1ccc(O)cc1)N1C(=O)C2C(C1=O)[C@H]1CC[C@@H]2O1 (some centres unmarked) [Compound 19],100%
6,"CCCCCCCCCCN1C(=O)C2C3CCC(O3)C2C1=O (centres unmarked) [Compound 7, N-decyl-7-Oxabicyclo(2.2.1)heptane-2,3-dicarboximide]",100%
7,"CCCN1C(=O)C2C(C1=O)[C@H]1CC[C@@H]2O1 (some centres unmarked) [Compound 4, N-propyl-7-Oxabicyclo(2.2.1)heptane-2,3-dicarboximide]",100%

# Same assay, conditions: secondary screening, serial ten-fold dilutions, 0.5 mM
row,SMILES,% of T. vitrinus L3 larvae killed
1,"O=C1NC(=O)C2C1[C@@H]1CC[C@H]2O1 (stereo partly drawn) [Compound 20, exo-7-Oxabicyclo(2.2.1)heptane-2,3-dicarboximide]",100%
2,"CCCN1C(=O)C2C(C1=O)[C@H]1CC[C@@H]2O1 (some centres unmarked) [Compound 4, N-propyl-7-Oxabicyclo(2.2.1)heptane-2,3-dicarboximide]",100%

# Test system: H. contortus L3 larvae
# Assay: Testing compounds on H. contortus L3 larvae (96-well microplate larval kill assay)
# Assay type: cell-based, Haemonchus contortus
# Conditions: secondary screening, sequential ten-fold dilutions of 5 mM down to 0.5
# Procedure: The L3 stage of H. contortus was collected from the faeces of experimentally infected sheep and stored in water at room temperature until needed. A stock solution of each compound was prepared by suspending the compound in 100% dimethyl sulphoxide (DMSO) to a final concentration of 100 mM.
# For this set of experiments, Trichostrongylus vitrinus (T. vitrinus) L3 larvae were used as positive controls by testing with the compounds identified in previous experiments as being able to kill all larvae. Approximately 50 L3 larvae of each species were added, in 95 μl of water, to the wells of a 96-well microtitre plate. All compounds were tested initially at a concentration of 5 mM by adding 5 μl of inhibitor in 100% DMSO.
# The plates were incubated overnight at room temperature (RT). Plates were viewed under a binocular microscope and the compounds showing 100% kill of H. contortus larvae were determined. Concentrations above 5 mM were not tested as DMSO alone kills larvae when the proportion exceeds 5% of the total volume. Many of the compounds are predicted to have limited solubility in aqueous solution, thus requiring the presence of organic solvent. Additional controls included wells with and without various concentrations of DMSO alone.
# Eight inhibitors, from the primary screening, appeared to kill 90-100% of H. contortus L3 larvae at a concentration of 5 mM. […]
row,SMILES,killing of H. contortus L3 larvae across the dilution series
1,"O=C1C2C(C(=O)N1CCO)[C@H]1CC[C@@H]2O1 (some centres unmarked) [Compound 15, N-Ethyl alcohol-7-Oxabicyclo(2.2.1)heptane-2,3-dicarboximide]",killed the larvae at the highest and lowest concentrations used

# Test system: not given
# Assay: not given
# Conditions: not given
row,SMILES,melting point
1,"O=C1C2C(C(=O)N1c1ncccc1OCc1ccccc1)[C@H]1CC[C@@H]2O1 (some centres unmarked) [Compound 77, 3-[3-(Benzyloxy)pyridin-2-yl]-10-oxa-4-azatricyclo[5.2.1]decane-3,5-dione]",99 to 102 °C
2,CCCCCCCCNC(=O)C1C(C(=O)O)[C@@H]2CC[C@H]1O2 (stereo in doubt),131 °C
3,"O=C1C2C(C(=O)N1CCO)[C@H]1CC[C@@H]2O1 (some centres unmarked) [Compound 15, N-Ethyl alcohol-7-Oxabicyclo(2.2.1)heptane-2,3-dicarboximide]",164 to 166 °C
4,CCCCN(C(=O)C1C2CCC(O2)C1C(=O)O)c1ccccc1 (centres unmarked),105 to 107 °C
5,O=C(O)c1ccc(NC(=O)C2C(C(=O)O)[C@@H]3CC[C@H]2O3)cc1Cl (stereo in doubt),216 to 217 °C
6,O=C(O)C1C(C(=O)NC2CCN(Cc3ccccc3)CC2)[C@H]2CC[C@@H]1O2 (stereo in doubt),124 to 125 °C
7,"CN(C)CCOc1ccccc1N1C(=O)C2C(C1=O)[C@H]1CC[C@@H]2O1 (some centres unmarked) [Compound 79, 4,{2,[2-(Dimethylamino)ethoxy]phenyl}-10-oxa-4-azatricyclo[5.2.1]decane-3,5-dione]",113 to 115 °C
8,CC(C)(C)c1ccccc1NC(=O)C1C(C(=O)O)[C@@H]2CC[C@H]1O2 (some centres unmarked),163 to 164 °C
9,CCCCCCCCCCNC(=O)C1C(C(=O)O)[C@@H]2CC[C@H]1O2 (stereo in doubt),110 to 111 °C
10,"Cn1ccc2c(CNC(=O)C3C(C(=O)O)[C@@H]4CC[C@H]3O4)cccc21 (stereo in doubt) [Compound 80, 3-[(1-Methyl-1H-indol-4-yl)methylcarbamoyl]-7-oxabicyclo[2.2.1]heptane-2-carboxylic acid]",161 °C
11,C=CCNC(=O)C1C(C(=O)O)[C@@H]2CC[C@H]1O2 (stereo in doubt),105 to 107 °C
12,"O=C(O)CCCCCCCNC(=O)C1C(C(=O)O)[C@@H]2CC[C@H]1O2 (stereo in doubt) [Compound 18, 3-(7-Carboxyheptylcarbamoyl)-7-oxabicyclo[2.2.1]heptane-2-carboxylic acid]",125 to 126 °C
13,CCc1ccccc1NC(=O)C1C(C(=O)O)[C@@H]2CC[C@H]1O2 (stereo in doubt),171 to 172 °C

# The next lines start with the values.
row,melting point,SMILES
1,56 to 57 °C,O=C1NC(=O)C2C1C1CCC2(CCCCCCO)O1 (centres unmarked)
2,83 to 85 °C,COc1ccc(CC23CCC(O2)C2C(=O)NC(=O)C23)cc1 (centres unmarked)
3,166 to 169 °C,CCC12CCC(O1)C1C(=O)NC(=O)C12 (centres unmarked)
4,45 to 46 °C,CCCCCCCCCCCCCCC12CCC(O1)C1C(=O)NC(=O)C12 (centres unmarked)
5,116 to 117 °C,C=CCC12CCC(O1)C1C(=O)NC(=O)C12 (centres unmarked)
6,145 to 146 °C,CN(C)CCOc1ccc(N2C(=O)C3C(C2=O)[C@H]2CC[C@@H]3O2)cc1 (some centres unmarked)
7,64 to 65 °C,C=CCCN1C(=O)C2C(C1=O)[C@H]1CC[C@@H]2O1 (some centres unmarked)
8,44 to 46 °C,CCC(C)C12CCC(O1)C1C(=O)NC(=O)C12 (centres unmarked)
9,162 to 164 °C,"O=C(O)CCCN1C(=O)C2C(C1=O)[C@H]1CC[C@@H]2O1 (some centres unmarked) [Compound 13, N-Butanoic acid-7-Oxabicyclo(2.2.1)heptane-2,3-dicarboximide]"
10,104 to 107 °C,CC(CO)C12CCC(O1)C1C(=O)NC(=O)C12 (centres unmarked)
11,110 to 112 °C,"O=C(O)CCCCCN1C(=O)C2C(C1=O)[C@H]1CC[C@@H]2O1 (some centres unmarked) [Compound 14, N-Hexanoic acid-7-Oxabicyclo(2.2.1)heptane-2,3-dicarboximide]"
12,159 to 160 °C,"O=C(O)C1C(C(=O)NCC2OCCc3sccc32)[C@H]2CC[C@@H]1O2 (some centres unmarked) [Compound 81, 3,[(6,7-Dihydro-4H-thieno[3,2-c]pyran-4-yl)methylcarbamoyl]-7-oxabicyclo[2.2.1]heptane-2-carboxylic acid]"
13,159 to 160 °C,Nc1ccccc1CC12CCC(O1)C1C(=O)NC(=O)C12 (centres unmarked)
14,164 to 166 °C,O=C1NC(=O)C2C1C1CCC2(CCCO)O1 (centres unmarked)
15,96 to 97 °C,"COC(CO)CN1C(=O)[C@@H]2[C@H](C1=O)[C@H]1CC[C@@H]2O1 (some centres unmarked) [Compound 16, N-2-Methoxypropyl-1-ol-7-Oxabicyclo(2.2.1)heptane-2,3-dicarboximide]"
16,134 to 136 °C,CC(C)(CO)C12CCC(O1)C1C(=O)NC(=O)C12 (centres unmarked)
17,97 to 99 °C,O=C1NC(=O)C2C1C1CCC2(C2CCCCC2)O1 (centres unmarked)
18,35 to 37 °C,CCCCCCCCCCCCC12CCC(O1)C1C(=O)NC(=O)C12 (centres unmarked)
19,140 to 142 °C,O=C(O)C1C(C(=O)N2CCCCC2)[C@H]2CC[C@@H]1O2 (some centres unmarked)
20,207 to 209 °C,O=C1NC(=O)C2C1C1CCC2(c2ccc([N+](=O)[O-])cc2)O1 (centres unmarked)
21,169 to 171 °C,O=C1NC(=O)C2C1C1CCC2(N2CCOCC2)O1 (centres unmarked)
22,62 to 64 °C,CCCCCCCCCCCCCCCCCCC12CCC(O1)C1C(=O)NC(=O)C12 (centres unmarked)
23,171 to 172 °C,O=C1NC(=O)C2C1C1CCC2(c2ccccc2)O1 (centres unmarked)
24,155 to 157 °C,COc1ccc(CC23CCC(O2)C2C(=O)NC(=O)C23)cc1OC (centres unmarked)
